Assay [1] can be described thus: Antibacterial activity against multidrug-resistant Salmonella enterica serovar Virchow B100 expressing floR2. Format: functional, Salmonella enterica subsp. enterica serovar Virchow.
Assay [2] is described as follows: Antibacterial activity against multidrug-resistant Salmonella enterica serovar Virchow B98 expressing floR2. In kind it is functional, Salmonella enterica subsp. enterica serovar Virchow.
For the next assay, the system named is Salmonella typhimurium. Description: Antibacterial activity against multidrug-resistant Salmonella enterica subsp. enterica serovar Typhimurium BN9181 expressing floR. Format: functional.
Assay [3] in a line: Antibacterial activity against multidrug-resistant Salmonella enterica serovar Virchow B94 expressing floR2. In kind it is functional, Salmonella enterica subsp. enterica serovar Virchow.

SMILES strings stand for the structures. ≈ marks a conversion by molar mass, not a printed value. A value given as a limit tells only on which side of the number the result lay.

With `O=C(N[C@H](CO)[C@H](O)c1ccc([N+](=O)[O-])cc1)C(Cl)Cl` [CHLORAMPHENICOL], the MIC in assay [1] is > 256 mg/L; in assay [2], > 256 mg/L; against Salmonella typhimurium it was 256 mg/L (≈ 792 µM); in assay [3], > 256 mg/L.
Consider `CS(=O)(=O)c1ccc([C@@H](O)[C@@H](CF)NC(=O)C(Cl)Cl)cc1` [FLORFENICOL], for which the MIC in assay [1] worked out at 32 mg/L (≈ 89.3 µM); in assay [2], 32 mg/L (≈ 89.3 µM); with Salmonella typhimurium, 64 mg/L (≈ 179 µM); in assay [3], 32 mg/L (≈ 89.3 µM).

For the origin of these results see ChEMBL document CHEMBL1629595, “Truncated tni module adjacent to the complex integron of salmonella genomic island 1 in Salmonella enterica serovar Virchow” (2009).
